Common to all, as to experiment: Kinobeads competition binding, HL60 cell lysate
Common to all, as to design: endogenous in cells; host or cells: HL60
Conditions in all cases: 10 μM free compound

One test has as its target HIPK2 (Homo sapiens, UniProt Q9H2X6). The protocol:
(§1) To one aliquot of cell lysate 10 μM of the free compound (FIG. 3, CZC31326) was added and allowed to bind to proteins in the lysate. Then the affinity matrix with the immobilized compound (Example 1) was added to capture proteins that were not interacting with the previously added free compound. Beads were separated from the lysate and bead bound proteins were eluted in SDS sample buffer and subsequently separated by SDS-Polyacrylamide gel electrophoresis (FIG. 4). Suitable gel bands were cut out and subjected to in-gel proteolytic digestion with trypsin. The second lysate aliquot was processed identically, however no free compound was added (DMSO solvent control). Peptides originating from samples 1 and 2 were labeled with iTRAQ reagents (iTRAQ 114 and iTRAQ 117) and the combined samples were analyzed with a nano-flow liquid chromatography system coupled online to a tandem mass spectrometer (LC-MS/MS) experiment followed by iTRAQ reporter ion quantification in the MS/MS spectra (Ross et al., 2004. Mol. Cell. Proteomics 3(12):1154-1169). Further experimental protocols can be found in WO2006/134056 and a previous publication (Bantscheff et al., 2007. Nature Biotechnology 25, 1035-1044). Sepharose-beads with the immobilized compound (100 μl beads per pull-down experiment) were equilibrated in lysis buffer and incubated with a cell lysate sample containing 50 mg of protein on an end-over-end shaker (Roto Shake Genie, Scientific Industries Inc.) for 2 hours at 4° C. Beads were collected, transferred to Mobicol-columns (MoBiTech 10055) and washed with 10 ml lysis buffer containing 0.4% NP40 detergent, followed by 5 ml lysis buffer containing 0.2% detergent. To elute bound proteins, 60 μl 2×SDS sample buffer was added to the column. The column was incubated for 30 minutes at 50° C. and the eluate was transferred to a siliconized microfuge tube by centrifugation. Proteins were then alkylated with 108 mM iodoacetamid. Proteins were then separated by SDS-Polyacrylamide electrophoresis (SDS-PAGE). The peptide extracts of samples treated with 10 μM of free compound (CZC31326) and the solvent control (0.5% DMSO) were treated with different variants of the isobaric tagging reagent (iTRAQ Reagents Multiplex Kit, part number 4352135, Applied Biosystems, Foster City, Calif., USA). The iTRAQ reagents are a set of multiplexed, amine-specific, stable isotope reagents that can label peptides on amino groups in up to four different biological samples enabling simultaneous identification and quantitation of peptides. The iTRAQ reagents were used according to instructions provided by the manufacturer. The samples were resuspended in 10 μl 50 mM TEAB solution, pH 8.5 and 10 μl ethanol were added. The iTRAQ reagent was dissolved in 120 μl ethanol and 10 μl of reagent solution were added to the sample. The labeling reaction was performed at room temperature for one hour on a horizontal shaker and stopped by adding 5 μl of 100 mM TEAB and 100 mM glycine in water. The two labeled sampled were then combined, dried in a vacuum centrifuge and resuspended in 10 μl of 0.1% formic acid in water. Relative protein quantitation was performed using peak areas of iTRAQ reporter ion signals essentially as described in an earlier publication (Bantscheff et al., 2007. Nature Biotechnology 25, 1035-1044).

For another test, the target named is T1, PKD2 (Homo sapiens, UniProt Q9BZL6).
T1 sequence (Q9BZL6 1-878): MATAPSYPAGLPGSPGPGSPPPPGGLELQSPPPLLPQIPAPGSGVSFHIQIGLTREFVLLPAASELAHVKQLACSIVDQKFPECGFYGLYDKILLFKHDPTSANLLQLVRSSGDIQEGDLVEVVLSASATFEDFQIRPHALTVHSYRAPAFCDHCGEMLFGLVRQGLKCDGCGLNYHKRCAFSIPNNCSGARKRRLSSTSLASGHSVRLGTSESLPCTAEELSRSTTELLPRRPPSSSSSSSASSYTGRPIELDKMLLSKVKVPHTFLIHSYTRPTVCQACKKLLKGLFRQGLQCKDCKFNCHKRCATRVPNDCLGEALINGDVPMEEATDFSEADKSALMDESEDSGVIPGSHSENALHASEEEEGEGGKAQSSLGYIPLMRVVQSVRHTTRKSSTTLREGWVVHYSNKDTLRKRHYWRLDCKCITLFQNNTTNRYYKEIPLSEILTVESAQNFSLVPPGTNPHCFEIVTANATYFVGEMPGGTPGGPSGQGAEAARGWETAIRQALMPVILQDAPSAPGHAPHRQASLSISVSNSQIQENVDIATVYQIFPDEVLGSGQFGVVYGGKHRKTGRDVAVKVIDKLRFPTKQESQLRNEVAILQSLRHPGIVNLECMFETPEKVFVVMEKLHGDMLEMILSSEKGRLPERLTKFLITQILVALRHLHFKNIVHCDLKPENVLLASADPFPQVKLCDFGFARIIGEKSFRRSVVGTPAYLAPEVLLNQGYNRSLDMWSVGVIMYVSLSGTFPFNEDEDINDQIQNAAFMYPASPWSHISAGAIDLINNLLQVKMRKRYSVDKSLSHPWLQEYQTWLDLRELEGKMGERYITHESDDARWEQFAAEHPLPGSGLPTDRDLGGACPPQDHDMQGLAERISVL
The protocol: as §1

The next test addresses GSK3A (Homo sapiens, UniProt P49840). The protocol:
as §1

Another test addresses TYK2 (Homo sapiens, UniProt P29597). The protocol: as §1
Another test concerns the target IRAK1 (Homo sapiens, UniProt P51617). The protocol: as §1
The target of another test is MSK2 (Homo sapiens, UniProt O75676). The protocol: as §1
A further test concerns the target PKN1 (Homo sapiens, UniProt Q16512). The protocol: as §1

Molecules are shown by their SMILES.

Chain of IRAK1 (P51617 whole entry): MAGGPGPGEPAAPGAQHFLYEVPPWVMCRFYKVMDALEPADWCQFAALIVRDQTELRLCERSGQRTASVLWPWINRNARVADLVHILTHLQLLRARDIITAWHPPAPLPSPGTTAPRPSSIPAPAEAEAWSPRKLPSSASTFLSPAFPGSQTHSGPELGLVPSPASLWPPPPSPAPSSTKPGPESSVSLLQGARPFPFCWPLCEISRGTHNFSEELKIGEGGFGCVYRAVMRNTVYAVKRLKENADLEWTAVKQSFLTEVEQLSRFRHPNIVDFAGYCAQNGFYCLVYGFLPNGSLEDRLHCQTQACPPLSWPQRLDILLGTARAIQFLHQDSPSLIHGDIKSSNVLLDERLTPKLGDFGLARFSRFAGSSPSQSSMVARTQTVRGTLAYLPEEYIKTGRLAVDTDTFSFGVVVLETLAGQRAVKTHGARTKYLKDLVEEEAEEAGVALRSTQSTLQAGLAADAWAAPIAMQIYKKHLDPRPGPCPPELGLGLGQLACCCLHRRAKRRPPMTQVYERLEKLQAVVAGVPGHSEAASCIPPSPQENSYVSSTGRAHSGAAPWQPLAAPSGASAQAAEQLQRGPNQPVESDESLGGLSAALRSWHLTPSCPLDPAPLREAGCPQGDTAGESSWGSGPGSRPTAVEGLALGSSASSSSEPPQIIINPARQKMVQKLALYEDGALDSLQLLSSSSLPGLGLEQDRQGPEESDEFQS
Chain of HIPK2 (Q9H2X6 whole entry): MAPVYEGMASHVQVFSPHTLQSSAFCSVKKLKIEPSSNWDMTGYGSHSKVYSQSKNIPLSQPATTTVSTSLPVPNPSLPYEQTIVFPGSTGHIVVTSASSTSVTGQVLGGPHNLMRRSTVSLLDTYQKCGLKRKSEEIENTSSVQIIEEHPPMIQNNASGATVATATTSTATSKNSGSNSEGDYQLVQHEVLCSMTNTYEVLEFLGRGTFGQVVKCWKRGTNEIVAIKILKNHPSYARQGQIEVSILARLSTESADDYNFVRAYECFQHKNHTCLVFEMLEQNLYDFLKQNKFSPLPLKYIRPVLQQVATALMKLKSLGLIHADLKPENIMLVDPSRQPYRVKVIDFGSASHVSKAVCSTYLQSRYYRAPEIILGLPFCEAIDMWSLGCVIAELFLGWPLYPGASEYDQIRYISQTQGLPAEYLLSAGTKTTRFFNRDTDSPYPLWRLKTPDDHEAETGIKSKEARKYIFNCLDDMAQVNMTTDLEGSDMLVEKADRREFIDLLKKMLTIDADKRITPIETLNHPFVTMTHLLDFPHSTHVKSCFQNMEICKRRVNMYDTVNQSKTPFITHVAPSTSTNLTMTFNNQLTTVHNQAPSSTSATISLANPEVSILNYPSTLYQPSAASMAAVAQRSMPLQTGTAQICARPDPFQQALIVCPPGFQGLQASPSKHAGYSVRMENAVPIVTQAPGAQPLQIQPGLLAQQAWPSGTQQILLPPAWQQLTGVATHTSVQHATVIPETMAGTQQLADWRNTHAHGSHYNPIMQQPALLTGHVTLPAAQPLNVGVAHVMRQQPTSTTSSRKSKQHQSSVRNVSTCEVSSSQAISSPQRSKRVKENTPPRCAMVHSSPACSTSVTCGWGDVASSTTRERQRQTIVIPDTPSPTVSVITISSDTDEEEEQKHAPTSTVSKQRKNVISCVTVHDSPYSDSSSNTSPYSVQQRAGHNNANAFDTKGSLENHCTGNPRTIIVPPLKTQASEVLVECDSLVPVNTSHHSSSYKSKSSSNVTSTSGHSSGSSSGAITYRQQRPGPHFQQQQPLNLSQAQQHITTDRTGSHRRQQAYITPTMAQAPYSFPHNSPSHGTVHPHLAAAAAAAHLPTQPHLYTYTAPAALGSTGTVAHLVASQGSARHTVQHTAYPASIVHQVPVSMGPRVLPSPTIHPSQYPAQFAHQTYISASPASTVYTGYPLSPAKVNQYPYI
Chain of GSK3A (P49840 whole entry): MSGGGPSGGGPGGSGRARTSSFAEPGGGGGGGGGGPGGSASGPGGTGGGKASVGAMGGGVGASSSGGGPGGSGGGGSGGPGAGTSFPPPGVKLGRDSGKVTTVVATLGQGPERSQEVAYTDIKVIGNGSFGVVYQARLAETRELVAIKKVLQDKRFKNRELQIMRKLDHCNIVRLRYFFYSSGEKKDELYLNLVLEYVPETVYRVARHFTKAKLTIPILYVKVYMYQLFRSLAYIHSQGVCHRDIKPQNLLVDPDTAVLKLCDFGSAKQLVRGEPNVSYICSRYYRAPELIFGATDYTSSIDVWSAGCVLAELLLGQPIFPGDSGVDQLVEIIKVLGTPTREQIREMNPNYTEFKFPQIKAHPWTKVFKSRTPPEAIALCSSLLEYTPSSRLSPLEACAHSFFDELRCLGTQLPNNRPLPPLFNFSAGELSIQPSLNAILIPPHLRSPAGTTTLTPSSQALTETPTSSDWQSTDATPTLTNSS
Chain of TYK2 (P29597 whole entry): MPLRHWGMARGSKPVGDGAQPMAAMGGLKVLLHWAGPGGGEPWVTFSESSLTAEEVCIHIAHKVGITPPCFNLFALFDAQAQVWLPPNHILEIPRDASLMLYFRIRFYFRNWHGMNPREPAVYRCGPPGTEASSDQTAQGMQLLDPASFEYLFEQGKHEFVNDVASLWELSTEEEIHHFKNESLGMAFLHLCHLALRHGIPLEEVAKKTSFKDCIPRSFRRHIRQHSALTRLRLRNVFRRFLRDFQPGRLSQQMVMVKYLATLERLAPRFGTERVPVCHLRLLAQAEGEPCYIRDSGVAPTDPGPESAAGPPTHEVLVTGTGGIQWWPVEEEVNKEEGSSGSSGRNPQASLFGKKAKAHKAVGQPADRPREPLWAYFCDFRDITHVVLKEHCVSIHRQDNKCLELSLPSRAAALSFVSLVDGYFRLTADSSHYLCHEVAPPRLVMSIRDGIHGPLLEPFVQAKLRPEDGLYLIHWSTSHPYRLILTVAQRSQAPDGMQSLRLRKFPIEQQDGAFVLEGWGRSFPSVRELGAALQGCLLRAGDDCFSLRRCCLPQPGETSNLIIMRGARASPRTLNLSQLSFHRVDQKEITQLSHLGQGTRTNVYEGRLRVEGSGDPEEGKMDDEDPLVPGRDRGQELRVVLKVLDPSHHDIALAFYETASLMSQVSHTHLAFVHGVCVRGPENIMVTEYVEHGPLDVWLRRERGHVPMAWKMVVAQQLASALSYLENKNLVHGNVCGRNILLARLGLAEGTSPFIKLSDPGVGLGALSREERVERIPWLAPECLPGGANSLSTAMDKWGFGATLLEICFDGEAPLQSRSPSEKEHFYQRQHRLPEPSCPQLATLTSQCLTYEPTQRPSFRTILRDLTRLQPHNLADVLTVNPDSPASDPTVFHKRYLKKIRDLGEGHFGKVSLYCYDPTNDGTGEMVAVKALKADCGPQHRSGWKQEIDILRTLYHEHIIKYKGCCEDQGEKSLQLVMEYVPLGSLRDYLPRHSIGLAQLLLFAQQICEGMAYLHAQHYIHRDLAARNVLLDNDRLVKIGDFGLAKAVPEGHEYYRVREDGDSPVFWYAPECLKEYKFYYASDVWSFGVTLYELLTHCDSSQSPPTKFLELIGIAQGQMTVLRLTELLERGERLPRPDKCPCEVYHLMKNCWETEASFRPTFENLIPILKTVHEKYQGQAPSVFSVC
Chain of PKN1 (Q16512 whole entry): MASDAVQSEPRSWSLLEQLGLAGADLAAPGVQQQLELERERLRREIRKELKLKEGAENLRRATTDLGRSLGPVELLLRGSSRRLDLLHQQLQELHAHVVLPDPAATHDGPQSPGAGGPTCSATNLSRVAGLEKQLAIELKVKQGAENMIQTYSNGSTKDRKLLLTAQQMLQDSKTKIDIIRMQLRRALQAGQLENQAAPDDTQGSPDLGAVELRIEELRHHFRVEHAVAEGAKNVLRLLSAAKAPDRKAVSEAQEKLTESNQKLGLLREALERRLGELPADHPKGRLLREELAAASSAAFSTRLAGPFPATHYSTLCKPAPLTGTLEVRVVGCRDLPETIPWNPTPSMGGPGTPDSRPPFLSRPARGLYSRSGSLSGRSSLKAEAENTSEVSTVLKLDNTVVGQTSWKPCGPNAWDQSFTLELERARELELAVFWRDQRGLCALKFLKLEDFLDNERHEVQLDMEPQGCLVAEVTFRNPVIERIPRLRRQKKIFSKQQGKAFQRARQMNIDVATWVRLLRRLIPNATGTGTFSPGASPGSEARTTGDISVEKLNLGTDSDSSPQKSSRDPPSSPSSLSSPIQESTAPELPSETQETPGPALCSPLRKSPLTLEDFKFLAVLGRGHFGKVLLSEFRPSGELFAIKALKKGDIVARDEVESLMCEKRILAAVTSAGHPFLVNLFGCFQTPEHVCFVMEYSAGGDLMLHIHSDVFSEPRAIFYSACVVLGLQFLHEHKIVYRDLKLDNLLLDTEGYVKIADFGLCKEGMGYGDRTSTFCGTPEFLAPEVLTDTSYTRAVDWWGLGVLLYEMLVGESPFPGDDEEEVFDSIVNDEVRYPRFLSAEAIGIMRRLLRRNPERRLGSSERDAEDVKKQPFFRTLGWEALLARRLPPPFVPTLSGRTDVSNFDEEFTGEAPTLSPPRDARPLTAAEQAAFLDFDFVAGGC

Usually inhibition stands for the share of the control response that was lost under treatment. Low readings indicate little suppression, high ones strong suppression. For `CS(=O)(=O)Nc1ccccc1Nc1nc(Nc2cccc(OCCN)c2)ncc1Cl` [CZC31326, N-(2-(2-(3-(2-aminoethoxy)phenylamino)-5-chloropyrimidin-4-ylamino)phenyl)methanesulfonamide], the inhibition at 10 µM on HIPK2 came out at 94.4%; on PKD2, 97.9%; at GSK3A it was 96.2%; at IRAK1 it was 94.9%; on MSK2, 96.8%; on PKN1, 97%. This compound came in with a Competition % on TYK2 of 97.1%.
